# Measured values published in US20230263822A1, “MODULATION OF FACTOR 11 EXPRESSION” (Ionis Pharmaceuticals, Inc., priority 2008, published 2023).
# Tests used:
# platelet factor-4 (PF-4) = test: Thrombus formation by PF-4 real-time PCR, FeCl3 induced venous thrombosis model vs warfarin (Example 11); type: in vivo, BALB/c mice; details: for PF-4 in vena cava, percentage as compared to PBS controls (thrombus formation): + FeCl3
# Method: Two control groups of BALB/c mice were treated with PBS, administered subcutaneously twice a week for 3 weeks. Two days after the last dose of PBS, mice in both groups were anesthetized with 150 mg/kg ketamine mixed with 10 mg/kg xylazine administered by intraperitoneal injection. Thrombus formation was induced with FeCl3 in all groups of mice except the first control group.
# In mice undergoing FeCl3 treatment, thrombus formation was induced by applying a piece of filter paper (2×4 mm) pre-saturated with 10% FeCl3 solution directly on the vena cava. After 3 minutes of exposure, the filter paper was removed. Thirty minutes after the filter paper application, a fixed length of the vein containing the thrombus was dissected out for platelet analysis. Liver was collected for RNA analysis.
# Real-time PCR quantification of platelet factor-4 (PF-4) was used to quantify platelets in the vena cava as a measure of thrombus formation.
# blood coagulation = test: Time course of aPTT after one dose (Example 29); type: in vivo, BALB/c mice; details: for aPTT INR: values approximate
# Method: One dose of 50 mg/kg ISIS 404071 was administered subcutaneously to BALB/c mice. Following ISIS 404071 administration, mice were sacrificed at 12 hours, 1 day, 2 days, 3 days, 4 days, 7 days, 14 days, 28 days, and 56 days. Whole liver was collected for RNA analysis and PPP was collected for aPTT analysis. A control group of mice was treated with one subcutaneous dose of PBS.
# aPTT values provided in Table 43 are reported as International Normalized Ratio (INR) values. INR values for aPTT were determined by dividing the aPTT value for ISIS 404071 treated mice by the aPTT for the PBS treated group. This ratio was then raised to the power of the International Sensitivity Index (ISI) of the tissue factor used.
substance,measurement,setting,value
"ISIS 404071: antisense oligonucleotide targeted to murine Factor 11 mRNA, TGGTAATCCACTTTCAGAGG, target start site 869 (chemistry not given here)",PF-4 in vena cava as measure of thrombus formation,"platelet factor-4 (PF-4); FeCl3 induced VT model, vs PBS control",dose-dependent reduction of PF-4 in comparison to the PBS control for dosages of 5 mg/kg and higher
same,"PF-4 in vena cava, percentage as compared to PBS controls (thrombus formation)",platelet factor-4 (PF-4); ISIS 404071 1.25 mg/kg subcutaneously twice a week for 3 weeks,143%
same,"PF-4 in vena cava, percentage as compared to PBS controls (thrombus formation)",platelet factor-4 (PF-4); ISIS 404071 5 mg/kg subcutaneously twice a week for 3 weeks,95%
same,"PF-4 in vena cava, percentage as compared to PBS controls (thrombus formation)",platelet factor-4 (PF-4); ISIS 404071 10 mg/kg subcutaneously twice a week for 3 weeks,21%
same,"PF-4 in vena cava, percentage as compared to PBS controls (thrombus formation)",platelet factor-4 (PF-4); ISIS 404071 20 mg/kg subcutaneously twice a week for 3 weeks,37%
same,"PF-4 in vena cava, percentage as compared to PBS controls (thrombus formation)",platelet factor-4 (PF-4); ISIS 404071 40 mg/kg subcutaneously twice a week for 3 weeks,20%
same,aPTT over time,"blood coagulation; BALB/c mice, one s.c. dose of 50 mg/kg",progressive decrease of aPTT until day 4 and then progressive increase to pre-treatment levels from day 7 to day 28
same,aPTT INR,blood coagulation; day 1 after one dose of 50 mg/kg s.c.,~1.02 INR
same,aPTT INR,blood coagulation; day 2 after one dose of 50 mg/kg s.c.,~1.12 INR
same,aPTT INR,blood coagulation; day 3 after one dose of 50 mg/kg s.c.,~1.29 INR
same,aPTT INR,blood coagulation; day 4 after one dose of 50 mg/kg s.c.,~1.30 INR
same,aPTT INR,blood coagulation; day 7 after one dose of 50 mg/kg s.c.,~1.25 INR
same,aPTT INR,blood coagulation; day 14 after one dose of 50 mg/kg s.c.,~1.11 INR
same,aPTT INR,blood coagulation; day 28 after one dose of 50 mg/kg s.c.,~1.02 INR
